Test results as given in patent US9090600B2, “Fungicidal 4-substituted-3-{phenyl[(heterocyclylmethoxy)imino]methyl}-1,2,4-oxadizol-5(4H)-one derivatives” (BAYER INTELLECTUAL PROPERTY GMBH, priority 2011, dated 2015).
Marks after values point to notes of the source that are not given here.

How the values were obtained:
[1] = test system: Botrytis cinerea; test: In vivo test on Botrytis cinerea (grey mould); details: gherkin plants, spray, 500 ppm, grading 4/5 days after contamination
Method: The active ingredients tested are prepared by homogenization in a mixture of acetone/Tween/DMSO, then diluted with water to obtain the desired active material
Gherkin plants (Vert petit de Paris variety), sown on a 50/50 peat soil-pozzolana substrate in starter cups and grown at 18-20° C., are treated at the cotyledon Z11 stage by spraying with the active ingredient prepared as described above.
Plants, used as controls, are treated with an aqueous solution not containing the active material. After 24 hours, the plants are contaminated by spraying them with an aqueous suspension of cryopreserved Botrytis cinerea spores (50.000 spores per ml) on upper surface of the leaves. The spores are suspended in a nutrient solution composed of: • 10 g/L of PDB; • 50 g/L of D-fructose; • 2 g/L of NH4NO3; • 1 g/L of KH2PO4.
The contaminated cucumber plants are settled for 4/5 days in a climatic room at 17° C. (day/night) and at 80% relative humidity.
Grading is carried out 4/5 days after the contamination, in comparison with the control plants.
(§1) Under these conditions, good (at least 70%) or total protection is observed at a dose of 500 ppm with the following compounds: […]

[2] = pH 2.7
[3] = test system: Pyrenophora teres; test: In vivo test on Pyrenophora teres (barley net blotch); details: barley plants, spray, 500 ppm, grading 12 days after contamination
Method: The active ingredients tested are prepared by homogenization in a mixture of acetone/Tween/DMSO, then diluted with water to obtain the desired active material concentration.
Barley plants (Plaisant variety), sown on a 50/50 peat soil-pozzolana substrate in starter cups and grown at 22° C. (12 h)/20° C. (12 h), are treated at the 1-leaf stage (10 cm tall) by spraying with the active ingredient prepared as described above.
(§2) Plants, used as controls, are treated with an aqueous solution not containing the active material.
After 24 hours, the plants are contaminated by spraying them with an aqueous suspension of Pyrenophora teres spores (12.000 spores per ml). The spores are collected from a 12-day-old culture.
The contaminated barley plants are incubated for 24 hours at about 20° C. and at 100% relative humidity, and then for 12 days at 80% relative humidity.
Grading is carried out 12 days after the contamination, in comparison with the control plants.
Under these conditions, good (at least 70%) is observed at a dose of 500 ppm with the following compounds: […]

[4] = test system: Phytophthora infestans; type: in vivo; details: tomato plants, spray, 500 ppm, grading 5 days after contamination
[5] = test system: Puccinia recondita; test: In vivo test on Puccinia recondita (brown rust); details: wheat plants, spray, 500 ppm, grading 10 days after contamination
Method: (§3) The active ingredients tested are prepared by homogenization in a mixture of acetone/tween/DMSO, then diluted with water to obtain the desired active material.
Wheat plants (Scipion variety) sown on 50/50 peat soil-pozzolana substrate in starter cups and grown at 22° C. (12 h)/20° C. (12 h), are treated at the 1-leaf stage (10 cm tall) by spraying with the aqueous suspension described above.
(§4) Plants, used as controls, are treated with an aqueous solution not containing the active material. After 24 hours, the plants are contaminated by spraying the leaves with an aqueous suspension of Puccinia recondite spores (100.000 spores per ml). The spores are collected from a 10-day-old contaminated wheat and are suspended in water containing 2.5 ml/l of tween 80 10%. The contaminated wheat plants are incubated for 24 hours at 20° C. and at 100% relative humidity, and then for 10 days at 20° C. and at 70% relative humidity. Grading is carried out 10 days after the contamination, in comparison with the control plants.
as §1

[6] = test system: Uromyces appendiculatus; test: In vivo test on Uromyces appendiculatus (brown rust of bean); details: Saxa variety plants, spray, 500 ppm, grading 10 days after contamination
Method: as §3
Wheat plants (Saxa variety) sown on 50/50 peat soil-pozzolana substrate in starter cups and grown at 24° C., are treated at the 2-leaf stage (9 cm tall) by spraying with the aqueous suspension described above.
as §2
as §4, with “After” for “Plants, used as controls, are treated with an aqueous solution not containing the active material. After”, “Uromyces appendiculatus” for “Puccinia recondite”, “(150.000” for “(100.000”
as §1

[7] = test system: Mycosphaerella graminicola; test: In vivo test on Mycosphaerella graminicola (wheat leaf spot); details: wheat plants, spray, 500 ppm, grading 21 to 28 days after contamination
Method: The active ingredients tested are prepared by homogenization in a mixture of acetone/tween/DMSO, then diluted with water to obtain the desired active material concentration.
Wheat plants (Scipion variety), sown on a 50/50 peat soil-pozzolana substrate in starter cups and grown at 22° C. (12 h)/20° C. (12 h), are treated at the 1-leaf stage (10 cm tall) by spraying with the aqueous suspension described above. Plants, used as controls, are treated with an aqueous solution not containing the active material.
After 24 hours, the plants are contaminated by spraying them with an aqueous suspension of cryopreserved Mycosphaerella graminicola spores (500.000 spores per ml). The contaminated wheat plants are incubated for 72 hours at 18° C. and at 100% relative humidity, and then for 21 to 28 days at 90% relative humidity.
Grading (% of efficacy) is carried out 21 to 28 days after the contamination, in comparison with the control plants.
as §1

[8] = Measurement of log P values by HPLC on reversed phase columns (EEC directive 79/831 Annex V.A8); details: pH 2.7
[9] = test system: Plasmopara viticola; test: Plasmopara test (grapevines)/preventive; type: in vivo; details: preventive spray, 10 ppm of active ingredient, evaluated 6 days after inoculation
Outline: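 Young grapevines sprayed preventively with compound formulated in acetone/dimethylacetamide with emulsifier, diluted in water, then inoculated with P. viticola spores after drying. Held 1 day at ~20 °C/100% RH, 4 days in greenhouse at ~21 °C/~90% RH, then misted for 1 day. Efficacy scored 6 days post-inoculation (0% = untreated control, 100% = no disease).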

Compound	Eff. % [1]	LogP [2]	Eff. % [3]	Eff. % [4]	Eff. % [5]	Eff. % [6]	Eff. % [7]	chromatographic logP [8]	Eff. % [9]
COc1cccc(C(=NOCc2cccc(N)n2)c2noc(=O)[nH]2)c1 (mixture of isomers) [Example 354]	71%	1.29 [a]	–	–	–	–	–	–	–
Cn1c(/C(=N\OCc2cccc(NC(=O)C3CC3)n2)c2ccccc2)noc1=O [Example 35]	71%	2.92 [a]	100%	–	–	–	–	–	–
CCCCCOC(=O)Nc1cccc(CO/N=C(/c2cccc(OC)c2)c2noc(=O)n2C)n1 [Example 36]	86%	4.46 [a]	71%	85%	75%	–	–	–	–
CC(Nc1cccc(CO/N=C(/c2ccccc2)c2noc(=O)n2C)n1)c1ccccc1 (centres unmarked) [Example 43, 4-methyl-3-{(Z)-phenyl[({6-[(1-phenylethyl)amino]pyridin-2-yl}methoxy)imino]methyl}-1,2,4-oxadiazol-5(4H)-one]	–	–	–	100%	94%	75%	91%	2.86	–
CCCCCCOC(=O)Nc1nc(CO/N=C(/c2ccccc2)c2noc(=O)n2C)cs1 [Example 53]	–	4.51 [a]	70%	73%	–	–	–	–	–
Cn1c(/C(=N\OCc2cccc(NC(=O)CCCC[n+]3ccccc3)n2)c2ccccc2)noc1=O.O=C[O-] [Example 67]	80%	1.67 [a]	–	89%	98%	–	90%	–	–
CCC(=O)Nc1cccc(CO/N=C(/c2ccccc2)c2noc(=O)n2C)n1 [Example 71]	–	2.77 [a]	70%	99%	–	–	88%	–	–
Cn1c(/C(=N\OCc2cccc(NC(=O)CCC3CCCC3)n2)c2ccccc2)noc1=O [Example 84]	–	4.36 [a]	70%	100%	–	–	–	–	–
Cc1cccc(/C(=N/OCc2cccc(NC(=O)OCc3ccccc3)n2)c2noc(=O)n2C)c1 [Example 117]	–	4.31 [a]	79%	–	–	–	90%	–	–
CCCCC(=O)Nc1cccc(CO/N=C(/c2cccc(F)c2)c2noc(=O)n2C)n1 [Example 140]	–	3.61 [a]	–	100%	86%	73%	–	–	85%
Cc1ccc(C(=O)Nc2nc(CO/N=C(/c3ccccc3)c3noc(=O)n3C)cs2)cc1 [Example 180]	83%	3.76 [a]	–	98%	–	–	–	–	95%
COc1ccc(/C(=N/OCc2cccc(NC(=O)OC(C)CC(C)C)n2)c2noc(=O)n2C)cc1 (centres unmarked) [Example 185]	–	4.72 [a]	–	83%	78%	75%	–	–	–
Cn1c(/C(=N\OCc2cccc(NC(=O)OC(C)(C)C)n2)c2cccc(F)c2)noc1=O [Example 206]	–	4.09 [a]	–	100%	–	91%	–	–	81%
